This assay concerns the target Programmed cell death protein 1/Programmed cell death 1 ligand 1 (Homo sapiens, UniProt Q9NZQ7). Put plainly: Inhibition of interaction of PD-1 (unknown origin) expressed in Jurkat T cells co-transfected with NFAT response element/PD-L1 (unknown origin) expressed in CHO-K1 cells by reporter bioassay. Type of assay: cell-based.

Usually EC50 stands for the midpoint of the concentration-response curve. Low readings indicate an effect from little substance, high ones a need for much substance.

Structures are written as SMILES.

Chain of Programmed cell death protein 1/Programmed cell death 1 ligand 1 (Q15116 whole entry): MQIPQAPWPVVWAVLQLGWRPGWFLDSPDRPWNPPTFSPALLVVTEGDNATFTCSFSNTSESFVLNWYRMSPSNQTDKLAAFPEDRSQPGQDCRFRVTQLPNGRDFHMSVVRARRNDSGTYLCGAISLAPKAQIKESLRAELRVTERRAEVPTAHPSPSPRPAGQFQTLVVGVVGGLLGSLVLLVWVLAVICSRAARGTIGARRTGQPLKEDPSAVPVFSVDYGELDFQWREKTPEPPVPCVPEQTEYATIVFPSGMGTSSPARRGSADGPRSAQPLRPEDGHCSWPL
Chain of Programmed cell death protein 1/Programmed cell death 1 ligand 1 (Q9NZQ7 whole entry): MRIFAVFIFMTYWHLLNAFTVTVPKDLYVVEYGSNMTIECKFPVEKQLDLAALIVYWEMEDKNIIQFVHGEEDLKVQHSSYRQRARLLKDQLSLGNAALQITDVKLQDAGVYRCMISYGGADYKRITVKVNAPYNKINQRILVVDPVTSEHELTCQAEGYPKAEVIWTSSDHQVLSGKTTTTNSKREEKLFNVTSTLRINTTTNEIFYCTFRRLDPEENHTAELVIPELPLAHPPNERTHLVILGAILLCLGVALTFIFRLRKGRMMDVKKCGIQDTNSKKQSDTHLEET

As for `Cc1c(NC(=O)c2ccc(CNCCO)cn2)cccc1-c1cccc(NC(=O)c2ccc(CNCCO)cn2)c1C`, the response was half-maximal at 17 nM (EC50).

(Values after ChEMBL document CHEMBL5532729, “Nonsymmetrically Substituted 1,1'-Biphenyl-Based Small Molecule Inhibitors of the PD-1/PD-L1 Interaction” (ACS Med Chem Lett, 2024).)
